Laboratory results: patent publication US11987588B2, “Modulators of the beta-3 adrenergic receptor useful for the treatment or prevention of heart failure and disorders related thereto” (Arena Pharmaceuticals, Inc., priority 2017, dated 2024)

What follows are molecules tested against Beta-3 Adrenergic Receptor (Homo sapiens (Human), UniProt P13945) (assay: Homogeneous Time-Resolved Fluorescence (HTRF) cAMP antagonist assay, IC50 determination). Conditions: CHO-K1 cells stably expressing recombinant receptor, isoproterenol at EC90.
Format: cell-based
Outline: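 CHO-K1 cells stably expressing receptor, 1500 cells/well, preincubated briefly with 10-point 5-fold compound series (top final typically 10 or 100 μM) in PBS with 1 mM IBMX, then challenged with isoproterenol at EC90 for 1 h at room temperature. cAMP read by HTRF against on-plate standard curve; IC50 from dose-response.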

Beta-3 Adrenergic Receptor, sequence (P13945 whole entry, species assumed): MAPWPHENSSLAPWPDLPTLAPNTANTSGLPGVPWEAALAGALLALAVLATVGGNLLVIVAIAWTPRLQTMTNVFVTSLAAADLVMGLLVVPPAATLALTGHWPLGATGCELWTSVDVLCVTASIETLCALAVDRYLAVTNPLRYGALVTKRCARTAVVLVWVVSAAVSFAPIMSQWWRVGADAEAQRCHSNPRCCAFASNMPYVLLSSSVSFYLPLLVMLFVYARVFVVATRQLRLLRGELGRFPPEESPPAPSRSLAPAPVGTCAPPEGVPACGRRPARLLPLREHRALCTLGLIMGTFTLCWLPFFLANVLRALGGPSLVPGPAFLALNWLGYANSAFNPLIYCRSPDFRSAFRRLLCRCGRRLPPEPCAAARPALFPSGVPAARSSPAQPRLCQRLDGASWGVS

IC50 [nM] | Compound
43.9 | CCn1cc(S(=O)(=O)N2CCC3(CC2)C[C@@H](NC[C@H](O)COc2cccc(S(=O)(=O)NC)c2)CO3)c(=O)c2cc(C)ccc21 [Compound 535, 3-((S)-3-((R)-8-(1-ethyl-6-methyl-4-oxo-1,4-dihydroquinolin-3-ylsulfonyl)-1-oxa-8-azaspiro[4.5]decan-3-ylamino)-2-hydroxypropoxy)-N-methylbenzenesulfonamide]
25.7 | CNS(=O)(=O)c1cccc(OC[C@@H](O)CNC2COC3(CCN(S(=O)(=O)c4cccc(-c5cnn(CCO)c5)c4)CC3)C2)c1 (stereo partly drawn) [Compound 70, 3-((2S)-2-hydroxy-3-(8-(3-(1-(2-hydroxyethyl)-1H-pyrazol-4-yl)phenylsulfonyl)-1-oxa-8-azaspiro[4.5]decan-3-ylamino)propoxy)-N-methylbenzenesulfonamide]
22.2 | CNS(=O)(=O)c1cccc(OC[C@@H](O)CNC2COC3(CCN(S(=O)(=O)c4ccc(F)cc4Cl)CC3)C2)c1 (stereo partly drawn) [Compound 200, 3-((2S)-3-(8-(2-chloro-4-fluorophenylsulfonyl)-1-oxa-8-azaspiro[4.5]decan-3-ylamino)-2-hydroxypropoxy)-N-methylbenzenesulfonamide]
18.9 | CNS(=O)(=O)c1cccc(OC[C@@H](O)CNC2COC3(CCN(S(=O)(=O)c4ccccc4Cl)CC3)C2)c1 (stereo partly drawn) [Compound 35, 3-((2S)-3-(8-(2-chlorophenylsulfonyl)-1-oxa-8-azaspiro[4.5]decan-3-ylamino)-2-hydroxypropoxy)-N-methylbenzenesulfonamide]
33.4 | CNS(=O)(=O)c1cccc(OC[C@@H](O)CN[C@H]2COC3(CCN(S(=O)(=O)c4cnc5c(c4C)N(C)CCO5)CC3)C2)c1 [Compound 467, 3-((S)-3-((R)-8-(1,8-dimethyl-2,3-dihydro-1H-pyrido[2,3-b][1,4]oxazin-7-ylsulfonyl)-1-oxa-8-azaspiro[4.5]decan-3-ylamino)-2-hydroxypropoxy)-N-methylbenzenesulfonamide]
17.1 | CNS(=O)(=O)c1cccc(OC[C@@H](O)CNC2COC3(CCN(S(=O)(=O)c4cccc(F)c4F)CC3)C2)c1 (stereo partly drawn) [Compound 201, 3-((2S)-3-(8-(2,3-difluorophenylsulfonyl)-1-oxa-8-azaspiro[4.5]decan-3-ylamino)-2-hydroxypropoxy)-N-methylbenzenesulfonamide]
10.5 | CNS(=O)(=O)c1cccc(OC[C@@H](O)CNC2COC3(CCN(S(=O)(=O)c4cccc(-c5ccc(N)nc5)c4)CC3)C2)c1 (stereo partly drawn) [Compound 103, 3-((2S)-3-(8-(3-(6-aminopyridin-3-yl)phenylsulfonyl)-1-oxa-8-azaspiro[4.5]decan-3-ylamino)-2-hydroxypropoxy)-N-methylbenzenesulfonamide]
20.2 | CNS(=O)(=O)c1cccc(OC[C@@H](O)CNC2COC3(CCN(S(=O)(=O)c4cnc5c(c4)N(C)CCO5)CC3)C2)c1 (stereo partly drawn) [Compound 399, 3-((2S)-2-hydroxy-3-(8-(1-methyl-2,3-dihydro-1H-pyrido[2,3-b][1,4]oxazin-7-ylsulfonyl)-1-oxa-8-azaspiro[4.5]decan-3-ylamino)propoxy)-N-methylbenzenesulfonamide]
446 | CNS(=O)(=O)c1cccc(OC[C@@H](O)CNC2COC3(CCN(S(=O)(=O)c4ccc(CN)cc4)CC3)C2)c1 (stereo partly drawn) [Compound 391, 3-((2S)-3-(8-(4-(aminomethyl)phenylsulfonyl)-1-oxa-8-azaspiro[4.5]decan-3-ylamino)-2-hydroxypropoxy)-N-methylbenzenesulfonamide]
33.1 | CNS(=O)(=O)c1cccc(OC[C@@H](O)CNC2COC3(CCN(S(=O)(=O)c4cc5c(nc4Cl)OCCN5C)CC3)C2)c1 (stereo partly drawn) [Compound 400, 3-((2S)-3-(8-(6-chloro-1-methyl-2,3-dihydro-1H-pyrido[2,3-b][1,4]oxazin-7-ylsulfonyl)-1-oxa-8-azaspiro[4.5]decan-3-ylamino)-2-hydroxypropoxy)-N-methylbenzenesulfonamide]
13.8 | CNS(=O)(=O)c1cccc(OC[C@@H](O)CNC2COC3(CCN(S(=O)(=O)c4cccc(OC)c4)CC3)C2)c1 (stereo partly drawn) [Compound 27, 3-((2S)-2-hydroxy-3-(8-(3-methoxyphenylsulfonyl)-1-oxa-8-azaspiro[4.5]decan-3-ylamino)propoxy)-N-methylbenzenesulfonamide]
112 | CN1CCOc2ncc(S(=O)(=O)N3CCC4(CC3)C[C@@H](NC[C@H](O)COc3cccc(S(=O)(=O)NCCO)c3)CO4)cc21 [Compound 417, 3-((S)-2-hydroxy-3-((R)-8-(1-methyl-2,3-dihydro-1H-pyrido[2,3-b][1,4]oxazin-7-ylsulfonyl)-1-oxa-8-azaspiro[4.5]decan-3-ylamino)propoxy)-N-(2-hydroxyethyl)benzenesulfonamide]
1120 | NCCNS(=O)(=O)c1cccc(OC[C@@H](O)CNC2COC3(CCN(S(=O)(=O)c4ccc5ccccc5c4)CC3)C2)c1 (stereo partly drawn) [Compound 91, N-(2-aminoethyl)-3-((2S)-2-hydroxy-3-(8-(naphthalen-2-ylsulfonyl)-1-oxa-8-azaspiro[4.5]decan-3-ylamino)propoxy)benzenesulfonamide]
35.4 | CNS(=O)(=O)c1cccc(OC[C@@H](O)CN[C@H]2COC3(CCN(S(=O)(=O)c4cnc5c(c4)N(C)C[C@H](C)O5)CC3)C2)c1 [Compound 472, 3-((S)-3-((R)-8-((S)-1,3-dimethyl-2,3-dihydro-1H-pyrido[2,3-b][1,4]oxazin-7-ylsulfonyl)-1-oxa-8-azaspiro[4.5]decan-3-ylamino)-2-hydroxypropoxy)-N-methylbenzenesulfonamide]

Second part, the molecule before the results:

Compound | IC50 [nM]
CCCn1cc(S(=O)(=O)N2CCC3(CC2)C[C@@H](NC[C@H](O)COc2cccc(S(=O)(=O)NC)c2)CO3)c(=O)c2ccccc21 [Compound 524, 3-((S)-2-hydroxy-3-((R)-8-(4-oxo-1-propyl-1,4-dihydroquinolin-3-ylsulfonyl)-1-oxa-8-azaspiro[4.5]decan-3-ylamino)propoxy)-N-methylbenzenesulfonamide] | 87.2
CNS(=O)(=O)c1cccc(OC[C@@H](O)CNC2COC3(CCN(S(=O)(=O)c4cccc(-c5ccc(CNCCO)cc5)c4)CC3)C2)c1 (stereo partly drawn) [Compound 304, 3-((2S)-2-hydroxy-3-(8-(4′-((2-hydroxyethylamino)methyl)biphenyl-3-ylsulfonyl)-1-oxa-8-azaspiro[4.5]decan-3-ylamino)propoxy)-N-methylbenzenesulfonamide] | 43
CC(C)(CO)NS(=O)(=O)c1cccc(OC[C@@H](O)CNC2COC3(CCN(S(=O)(=O)c4ccc5ccccc5c4)CC3)C2)c1 (stereo partly drawn) [Compound 49, N-(1-hydroxy-2-methylpropan-2-yl)-3-((2S)-2-hydroxy-3-(8-(naphthalen-2-ylsulfonyl)-1-oxa-8-azaspiro[4.5]decan-3-ylamino)propoxy)benzenesulfonamide] | 107
CCOc1ccc(-c2ccc(CN)cc2)cc1S(=O)(=O)N1CCC2(CC1)C[C@@H](NC[C@H](O)COc1cccc(S(=O)(=O)NC)c1)CO2 [Compound 420, 3-((S)-3-((R)-8-(4′-(aminomethyl)-4-ethoxybiphenyl-3-ylsulfonyl)-1-oxa-8-azaspiro[4.5]decan-3-ylamino)-2-hydroxypropoxy)-N-methylbenzenesulfonamide] | 10.2
CNS(=O)(=O)c1cccc(OC[C@@H](O)CNC2COC3(CCN(S(=O)(=O)c4cccc(Oc5ccccc5)c4)CC3)C2)c1 (stereo partly drawn) [Compound 124, 3-((2S)-2-hydroxy-3-(8-(3-phenoxyphenylsulfonyl)-1-oxa-8-azaspiro[4.5]decan-3-ylamino)propoxy)-N-methylbenzenesulfonamide] | 36.2
NS(=O)(=O)c1cccc(OC[C@@H](O)CN[C@H]2COC3(CCN(S(=O)(=O)c4c[nH]c5c(F)cccc5c4=O)CC3)C2)c1 [Compound 554, 3-((S)-3-((R)-8-(8-fluoro-4-oxo-1,4-dihydroquinolin-3-ylsulfonyl)-1-oxa-8-azaspiro[4.5]decan-3-ylamino)-2-hydroxypropoxy)benzenesulfonamide] | 34.6
CNS(=O)(=O)c1cccc(OC[C@@H](O)CNC2COC3(CCN(S(=O)(=O)c4cccc(-c5ccc(/C(N)=N/O)cc5)c4)CC3)C2)c1 (stereo partly drawn) [Compound 379, (Z)-N′-hydroxy-3′-(3-((S)-2-hydroxy-3-(3-(N-methylsulfamoyl)phenoxy)propylamino)-1-oxa-8-azaspiro[4.5]decan-8-ylsulfonyl)biphenyl-4-carboximidamide] | 11.1
CNS(=O)(=O)c1cccc(OC[C@@H](O)CNC2COC3(CCN(S(=O)(=O)c4cccc(-c5ccc(CNCCNC(C)=O)cc5)c4)CC3)C2)c1 (stereo partly drawn) [Compound 348, N-(2-((3′-(3-((S)-2-hydroxy-3-(3-(N-methylsulfamoyl)phenoxy)propylamino)-1-oxa-8-azaspiro[4.5]decan-8-ylsulfonyl)biphenyl-4-yl)methylamino)ethyl)acetamide] | 36.7
CCc1cnc(N2CCC3(CC2)C[C@@H](NC[C@H](O)COc2cccc(S(=O)(=O)NC)c2)CO3)nc1 [Compound 571, 3-((S)-3-((R)-8-(5-ethylpyrimidin-2-yl)-1-oxa-8-azaspiro[4.5]decan-3-ylamino)-2-hydroxypropoxy)-N-methylbenzenesulfonamide] | 237
CNS(=O)(=O)c1cccc(OC[C@@H](O)CNC2COC3(CCN(S(=O)(=O)c4cccc(-c5ccc(CNC(=O)CN)cc5)c4)CC3)C2)c1 (stereo partly drawn) [Compound 353, 2-amino-N-((3′-(3-((S)-2-hydroxy-3-(3-(N-methylsulfamoyl)phenoxy)propylamino)-1-oxa-8-azaspiro[4.5]decan-8-ylsulfonyl)biphenyl-4-yl)methyl)acetamide] | 58
CNS(=O)(=O)c1cccc(OC[C@@H](O)CNC2COC3(CCN(S(=O)(=O)c4cc(-c5ccc(CN)cc5)ccc4OC(F)(F)F)CC3)C2)c1 (stereo partly drawn) [Compound 411, 3-((2S)-3-(8-(4′-(aminomethyl)-4-(trifluoromethoxy)biphenyl-3-ylsulfonyl)-1-oxa-8-azaspiro[4.5]decan-3-ylamino)-2-hydroxypropoxy)-N-methylbenzenesulfonamide] | 9.84
